We go through 11 compounds from publication PMC8218592 (Journal of medicinal chemistry, 2019).

For one experiment, the target named is T1, IRAP (Mus musculus, UniProt Q8C129).
T1 sequence (Q8C129 132-1025 limits assumed): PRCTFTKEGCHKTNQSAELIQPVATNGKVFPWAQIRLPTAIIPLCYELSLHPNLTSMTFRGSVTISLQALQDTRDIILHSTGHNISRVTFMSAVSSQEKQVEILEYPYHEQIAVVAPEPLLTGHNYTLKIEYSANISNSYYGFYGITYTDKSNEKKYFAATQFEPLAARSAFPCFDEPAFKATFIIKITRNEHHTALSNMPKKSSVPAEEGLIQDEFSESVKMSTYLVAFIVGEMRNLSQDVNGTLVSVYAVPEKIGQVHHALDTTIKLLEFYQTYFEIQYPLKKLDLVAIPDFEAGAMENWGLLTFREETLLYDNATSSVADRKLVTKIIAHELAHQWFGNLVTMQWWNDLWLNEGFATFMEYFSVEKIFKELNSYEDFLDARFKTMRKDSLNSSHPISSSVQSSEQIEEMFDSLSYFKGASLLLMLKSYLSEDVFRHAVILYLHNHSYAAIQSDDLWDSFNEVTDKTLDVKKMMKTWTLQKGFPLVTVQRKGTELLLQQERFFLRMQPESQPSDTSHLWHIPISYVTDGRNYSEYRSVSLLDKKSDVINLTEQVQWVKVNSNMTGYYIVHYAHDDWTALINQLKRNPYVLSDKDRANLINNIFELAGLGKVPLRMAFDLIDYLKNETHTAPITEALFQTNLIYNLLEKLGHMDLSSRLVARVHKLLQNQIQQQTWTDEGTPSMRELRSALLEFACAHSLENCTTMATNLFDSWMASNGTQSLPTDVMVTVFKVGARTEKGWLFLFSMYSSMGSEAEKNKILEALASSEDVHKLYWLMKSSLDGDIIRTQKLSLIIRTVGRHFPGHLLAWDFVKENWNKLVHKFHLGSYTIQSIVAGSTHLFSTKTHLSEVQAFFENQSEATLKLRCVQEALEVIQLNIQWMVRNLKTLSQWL
Put plainly: IRAP L-AMC hydrolysis assay. It is filed as biochemical.

Experiment [1] concerns the target T2, ERAP1 (Homo sapiens, UniProt Q9NZ08). Put plainly: ERAP1 WK10. It is filed as biochemical. Conditions: Figure 3B.
For experiment [2], the target named is T2, ERAP1. Put plainly: ERAP1 L-pNA hydrolysis mode of action kinetics. It is filed as biochemical.
For experiment [3], the target named is T2, ERAP1. Put plainly: ERAP1 LF9 peptide hydrolysis coupled-enzyme assay, mode of action. As to conditions: LF9 peptide substrate. In kind it is biochemical.
The subject of another experiment is ERAP1 K551A. Put plainly: L-AMC activation assay with mutant ERAP1 K551A. It is filed as biochemical, human.
The next experiment concerns ERAP1 allele II. As to the kind of experiment: L-AMC hydrolysis assay with ERAP1 allelic variant allele II. In kind it is biochemical, human. Conditions: disease-associated allele II (528K).
Experiment [4] deals with T2, ERAP1. As to the kind of experiment: ERAP1 L-AMC hydrolysis assay. In kind it is biochemical.

T2 sequence (Q9NZ08 22-941): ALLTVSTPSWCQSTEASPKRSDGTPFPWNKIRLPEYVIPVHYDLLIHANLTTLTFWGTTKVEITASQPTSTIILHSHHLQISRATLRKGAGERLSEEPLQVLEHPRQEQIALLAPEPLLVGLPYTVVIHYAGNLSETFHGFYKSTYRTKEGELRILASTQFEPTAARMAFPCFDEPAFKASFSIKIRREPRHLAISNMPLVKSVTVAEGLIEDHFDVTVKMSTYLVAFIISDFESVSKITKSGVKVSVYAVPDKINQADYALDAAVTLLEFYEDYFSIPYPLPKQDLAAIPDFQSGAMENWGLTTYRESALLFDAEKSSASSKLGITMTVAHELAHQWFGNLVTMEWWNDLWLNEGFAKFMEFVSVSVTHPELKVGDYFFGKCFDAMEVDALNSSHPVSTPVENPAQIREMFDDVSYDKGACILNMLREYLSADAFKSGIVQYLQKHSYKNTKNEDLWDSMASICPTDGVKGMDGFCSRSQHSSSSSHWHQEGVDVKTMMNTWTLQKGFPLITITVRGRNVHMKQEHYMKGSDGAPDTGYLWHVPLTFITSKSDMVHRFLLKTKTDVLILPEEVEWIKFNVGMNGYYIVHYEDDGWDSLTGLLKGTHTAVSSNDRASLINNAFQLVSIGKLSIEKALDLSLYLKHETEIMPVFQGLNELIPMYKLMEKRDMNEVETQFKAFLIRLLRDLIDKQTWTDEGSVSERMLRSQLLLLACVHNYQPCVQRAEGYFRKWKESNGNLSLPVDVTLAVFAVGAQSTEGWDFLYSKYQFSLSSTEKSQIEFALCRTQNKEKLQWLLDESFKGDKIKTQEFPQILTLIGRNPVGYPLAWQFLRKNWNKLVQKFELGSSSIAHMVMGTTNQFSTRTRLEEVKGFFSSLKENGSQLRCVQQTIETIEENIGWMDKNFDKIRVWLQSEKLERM

As usually defined, the IC50 is the point on the concentration scale where inhibition reaches its midpoint. `COc1ccc(C(=O)O)cc1S(=O)(=O)Nc1cc(C(F)(F)F)ccc1N1CCCCC1` [Compound 3, 4-Methoxy-3-(N-(2-(piperidin-1-yl)-5-(trifluoromethyl)phenyl)sulfamoyl)benzoic acid]: on IRAP, the IC50 was greater than 200 µM. In addition, the “effect on IRAP activity” value at IRAP (Figure 2C) is listed as “no detectable effect”. Also, on ERAP1 [1], the “effect on WK10 peptide hydrolysis” value was “inhibited peptide hydrolysis in a dose-dependent manner”. The “increase of L-pNA hydrolysis activity (Vmax/Khalf)” value at ERAP1 [2] (over the concentration range tested) is recorded as “up to 1.8 fold”. In addition, the mode of inhibition entry on ERAP1 [3] is listed as “competitive”. The “effect of mutation on L-AMC AC50” value in the experiment with ERAP1 K551A is “substantial effect”. Further, the “L-AMC AC50 for ERAP1 allele II” value with ERAP1 allele II is “sub-micromolar”.

`Cc1ccc(NC(=O)NC2(C(=O)N3CCN(c4ccccc4)CC3)CCCCC2)cc1` [Compound 21, 1-(1-(4-Phenylpiperazine-1-carbonyl)cyclohexyl)-3-(p-tolyl)urea]: at ERAP1 [4], the “activity in ERAP1 L-AMC hydrolysis assay” value was “no detectable inhibitory activity”. For the same compound, the half-inhibitory concentration (IC50) against IRAP is greater than 200 µM.

`CC(=O)N1CCN(C(=O)C2(NC(=O)Nc3ccc(F)cc3)CCCCC2)CC1` [Compound 18, 1-(1-(4-Acetylpiperazine-1-carbonyl)cyclohexyl)-3-(4-fluorophenyl)urea] registered an IC50 against IRAP greater than 200 µM.

As to `Cc1ccc(NC(=O)NC2(C(=O)N3CCOCC3)CCCCC2)cc1` [Compound 20, 1-(1-(Morpholine-4-carbonyl)cyclohexyl)-3-(p-tolyl)urea], the “activity in ERAP1 L-AMC hydrolysis assay” value at ERAP1 [4] was “no detectable inhibitory activity”. The compound further showed an IC50 on IRAP greater than 200 µM.

With `COc1ccc(NC(=O)NC2(C(=O)N3CCN(C(C)=O)CC3)CCCCC2)cc1` [Compound 17, 1-(1-(4-Acetylpiperazine-1-carbonyl)cyclohexyl)-3-(4-methoxyphenyl)urea], the half-maximal inhibitory concentration (IC50) against IRAP was greater than 200 µM.

As for `CC(=O)N1CCN(C(=O)C2(NC(=O)Nc3ccccc3)CCCCC2)CC1` [Compound 19, 1-(1-(4-Acetylpiperazine-1-carbonyl)cyclohexyl)-3-phenylurea], at IRAP, the IC50 is greater than 200 µM.

The compound `CC(=O)N1CCN(C(=O)C2(NC(=O)Nc3ccc(C)cc3)CC2)CC1` [Compound 23, 1-(1-(4-Acetylpiperazine-1-carbonyl)cyclopropyl)-3-(p-tolyl)urea] registered an IC50 against IRAP greater than 200 µM.

The compound `CC(=O)N1CCN(C(=O)C2(NC(=O)Nc3ccc(Cl)cc3)CCCCC2)CC1` [Compound 16, 1-(1-(4-Acetylpiperazine-1-carbonyl)cyclohexyl)-3-(4-chlorophenyl)urea] registered an IC50 on IRAP greater than 200 µM.

In turn, `CC(=O)N1CCN(C(=O)C2(NC(=O)Nc3ccc(C)cc3)CCCCC2)CC1` [Compound 2, 1-(1-(4-Acetylpiperazine-1-carbonyl)cyclohexyl)-3-(p-tolyl)urea] displayed an IC50 at IRAP greater than 200 µM.

For the compound `N=C(NCCc1c[nH]c2ccccc12)NS(=O)(=O)c1cc(F)ccc1F` [Compound 1, N-(N-(2-(1H-Indol-3-yl)ethyl)carbamimidoyl)-2,5-difluorobenzenesulfonamide], on ERAP1 [1], the “effect on WK10 peptide hydrolysis” value is “inhibited peptide hydrolysis in a dose-dependent manner”. In addition, the mode of inhibition result on ERAP1 [2] (L-pNA substrate) is given as “competitive”. For the same compound, the “change in potency for mutant ERAP1 (L-AMC inhibition)” value with ERAP1 T350A is recorded as “small reduction in potency”.

At IRAP, `CC(=O)N1CCN(C(=O)C(C)(C)NC(=O)Nc2ccc(C)cc2)CC1` [Compound 22, 1-(1-(4-Acetylpiperazin-1-yl)-2-methyl-1-oxopropan-2-yl)-3-(p-tolyl)urea] yielded an IC50 greater than 200 µM.
